# Measured values reported in the NIST ThermoML archive (doi:10.1021/acs.jced.5b00367).
# Numbers after ± are expanded uncertainties.
# Assay: wn = mass fraction of the nth substance listed
# Conditions: 101 kPa, Liquid, Alternating current cell with electrodes, w1 = 0.01
smiles,measurement,setting,value
CCCCCCCCCCCCCCCC[N+](CC)(CC)CCCCCCCCCCCCCCCC.[Br-] [diethyldihexadecylammonium bromide] + O,electrical conductivity,279.15 K,0.0018 ± 0.00072 S/m
same,electrical conductivity,279.25 K,0.00186 ± 0.00074 S/m
same,electrical conductivity,279.45 K,0.00186 ± 0.00074 S/m
same,electrical conductivity,279.55 K,0.00187 ± 0.00075 S/m
same,electrical conductivity,279.65 K,0.00187 ± 0.00075 S/m
same,electrical conductivity,279.85 K,0.00188 ± 0.00075 S/m
same,electrical conductivity,280.15 K,0.00189 ± 0.00076 S/m
same,electrical conductivity,280.35 K,0.00189 ± 0.00076 S/m
same,electrical conductivity,280.55 K,0.0019 ± 0.00076 S/m
same,electrical conductivity,280.65 K,0.0019 ± 0.00076 S/m
same,electrical conductivity,281.05 K,0.0019 ± 0.00076 S/m
same,electrical conductivity,281.15 K,0.00191 ± 0.00076 S/m
same,electrical conductivity,281.55 K,0.00191 ± 0.00076 S/m
same,electrical conductivity,281.85 K,0.00192 ± 0.00077 S/m
same,electrical conductivity,282.05 K,0.00192 ± 0.00077 S/m
same,electrical conductivity,282.25 K,0.00193 ± 0.00077 S/m
same,electrical conductivity,282.75 K,0.00194 ± 0.00078 S/m
same,electrical conductivity,283.05 K,0.00195 ± 0.00078 S/m
same,electrical conductivity,283.15 K,0.00195 ± 0.00078 S/m
same,electrical conductivity,283.45 K,0.00195 ± 0.00078 S/m
same,electrical conductivity,283.65 K,0.00195 ± 0.00078 S/m
same,electrical conductivity,283.85 K,0.00195 ± 0.00078 S/m
same,electrical conductivity,283.95 K,0.00195 ± 0.00078 S/m
same,electrical conductivity,284.15 K,0.00195 ± 0.00078 S/m
same,electrical conductivity,284.55 K,0.00197 ± 0.00079 S/m
same,electrical conductivity,284.75 K,0.00197 ± 0.00079 S/m
same,electrical conductivity,285.25 K,0.00197 ± 0.00079 S/m
same,electrical conductivity,285.45 K,0.00198 ± 0.00079 S/m
same,electrical conductivity,285.55 K,0.00198 ± 0.00079 S/m
same,electrical conductivity,285.75 K,0.00198 ± 0.00079 S/m
same,electrical conductivity,285.85 K,0.00198 ± 0.00079 S/m
same,electrical conductivity,286.15 K,0.00198 ± 0.00079 S/m
same,electrical conductivity,286.25 K,0.00198 ± 0.00079 S/m
same,electrical conductivity,286.55 K,0.00198 ± 0.00079 S/m
same,electrical conductivity,286.65 K,0.00198 ± 0.00079 S/m
same,electrical conductivity,289.15 K,0.002 ± 0.0008 S/m
same,electrical conductivity,290.15 K,0.00201 ± 0.0008 S/m
same,electrical conductivity,290.85 K,0.00202 ± 0.00081 S/m
same,electrical conductivity,291.45 K,0.00204 ± 0.00082 S/m
same,electrical conductivity,291.75 K,0.00205 ± 0.00082 S/m
same,electrical conductivity,292.05 K,0.00206 ± 0.00082 S/m
same,electrical conductivity,292.95 K,0.00207 ± 0.00083 S/m
same,electrical conductivity,295.55 K,0.00209 ± 0.00084 S/m
same,electrical conductivity,296.65 K,0.0021 ± 0.00084 S/m
same,electrical conductivity,297.65 K,0.00211 ± 0.00084 S/m
same,electrical conductivity,298.65 K,0.00212 ± 0.00085 S/m
same,electrical conductivity,299.45 K,0.00213 ± 0.00085 S/m
same,electrical conductivity,300.75 K,0.00214 ± 0.00086 S/m
same,electrical conductivity,301.25 K,0.00215 ± 0.00086 S/m
same,electrical conductivity,302.35 K,0.00216 ± 0.00086 S/m
same,electrical conductivity,303.05 K,0.00217 ± 0.00087 S/m
same,electrical conductivity,303.65 K,0.00219 ± 0.00088 S/m
same,electrical conductivity,304.05 K,0.0022 ± 0.00088 S/m
same,electrical conductivity,305.25 K,0.00226 ± 0.0009 S/m
same,electrical conductivity,305.55 K,0.00229 ± 0.00092 S/m
same,electrical conductivity,305.95 K,0.00235 ± 0.00094 S/m
same,electrical conductivity,306.45 K,0.00239 ± 0.00096 S/m
same,electrical conductivity,306.95 K,0.00247 ± 0.00099 S/m
same,electrical conductivity,307.35 K,0.00254 ± 0.001 S/m
same,electrical conductivity,307.65 K,0.00264 ± 0.0011 S/m
same,electrical conductivity,307.95 K,0.0027 ± 0.0011 S/m
same,electrical conductivity,308.15 K,0.00278 ± 0.0011 S/m
same,electrical conductivity,308.45 K,0.00294 ± 0.0012 S/m
same,electrical conductivity,308.75 K,0.00294 ± 0.0012 S/m
same,electrical conductivity,308.95 K,0.00295 ± 0.0012 S/m
same,electrical conductivity,309.55 K,0.00296 ± 0.0012 S/m
same,electrical conductivity,310.25 K,0.00297 ± 0.0012 S/m
same,electrical conductivity,311.35 K,0.00299 ± 0.0012 S/m
same,electrical conductivity,312.45 K,0.00304 ± 0.0012 S/m
same,electrical conductivity,312.65 K,0.00305 ± 0.0012 S/m
same,electrical conductivity,313.55 K,0.00305 ± 0.0012 S/m
same,electrical conductivity,313.95 K,0.00308 ± 0.0012 S/m
same,electrical conductivity,314.15 K,0.00314 ± 0.0013 S/m
same,electrical conductivity,316.55 K,0.00319 ± 0.0013 S/m
same,electrical conductivity,317.25 K,0.00323 ± 0.0013 S/m
same,electrical conductivity,318.65 K,0.00322 ± 0.0013 S/m
same,electrical conductivity,318.75 K,0.00325 ± 0.0013 S/m
same,electrical conductivity,319.15 K,0.00326 ± 0.0013 S/m
same,electrical conductivity,320.75 K,0.00328 ± 0.0013 S/m
same,electrical conductivity,320.95 K,0.00331 ± 0.0013 S/m
same,electrical conductivity,321.05 K,0.00333 ± 0.0013 S/m
same,electrical conductivity,322.05 K,0.0034 ± 0.0014 S/m
same,electrical conductivity,322.15 K,0.0034 ± 0.0014 S/m
same,electrical conductivity,323.15 K,0.00347 ± 0.0014 S/m
